Experimental data taken from publication PMC8626775, “Anti-schistosomal activities of quinoxaline-containing compounds: From hit identification to lead optimisation” (European Journal of Medicinal Chemistry, 2021).
Like-named read-outs stand apart in the source and are kept apart here.

How the values were obtained:
S. mansoni schistosomula = S. mansoni schistosomula high-throughput phenotype and motility screen (Roboworm), 72 h; type: cell-based, Schistosoma mansoni; conditions: for EC50: Schistosoma mansoni; for Effect on phenotype and motility of S. mansoni schistosomula: primary tested concentrations 10 and 50 μM
Procedure: Cercariae derived from the NMRI ([…]) Puerto Rican strain (PR-1) of S. mansoni were shed from two Biomphalaria glabrata strains, the NMRI albino and pigmented outbred strains, under intensified lighting conditions (1 h of incubation at 26 °C). Cercariae were then mechanically transformed into schistosomula as previously described.
High-throughput screening (HTS) of selected compounds was conducted as previously described. Briefly, newly transformed schistosomula were distributed in a 384-well tissue culture plate (PerkinElmer, cat 6007460, seeding density of 120 parasites/well). Each compound (at a single concentration or two-fold titrations) was transferred into individual wells alongside the positive and negative controls (AUR at 10 μM final concentration in 0.625% DMSO and 0.625% DMSO, respectively). Schistosomula/compound co-cultures were then incubated at 37 °C for 72 h in a humidified atmosphere containing 5% CO2. Following the co-culture period, automatic assessment of compound-induced schistosomula motility and phenotypic changes were conducted with the high-content imaging platform Roboworm using the image analysis model previously described by Paveley et al..

S. mansoni adult worms = assay: S. mansoni adult worm motility screen (WormassayGP2), 72 h; type: cell-based, Schistosoma mansoni
Excerpt: Mice (Mus musculus HsdOLa:TO - Tuck Ordinary; Envigo, UK) were used for the mammalian-specific propagation of the S. mansoni life cycle. Experimental animals were infected with 4000 or 180 S. mansoni cercariae/mouse and perfused three- or seven-weeks post-infection to obtain S. mansoni juvenile or adult worms, respectively. Preparation steps following perfusion have been described previously. Briefly, the parasite material was washed three times with pre-warmed adult worm media (DMEM (Gibco, Paisley, UK) supplemented with 10% (v/v) Fetal Calf Serum (FCS, Gibco, Paisley, UK), 1% (v/v) L-glutamine (Gibco, Paisley, UK) and an antibiotic mixture (150 Units/ml penicillin and 150 μg/ml streptomycin; Gibco, UK)) to remove residual host contamination and incubated in a humidified environment containing 5% CO2 at 37 °C for at least 1 h.
For the evaluation of anti-schistosomal activity on the adult stage of the parasite, 7-wk old worms were transferred into 48 well tissue culture plates (1–3 worm pairs/well, in duplicate). […] DMSO (0.5%) and praziquantel (10 μM in 0.5% DMSO) were also included as negative and positive control treatments. Treated adult worms were incubated for 72 h in a humidified environment containing 5% CO2 at 37 °C. Parasite motility after compound treatment was assessed by a digital image processing-based system (WormassayGP2), modified after Wormassay. Following compound-parasite co-incubation, eggs were collected, fixed in formalin (10% v/v formaldehyde) and enumerated aiming to collect further information on any compound-induced effects on parasite fecundity and IVLE production.

[1] = 72 h, Table 2, motility, 72 h, three replicate titrations (0.313–10 μM), read-out: Activity on schistosomula (EC50, μM - 72 h) M
[2] = 72 h, Table 2, phenotype, 72 h, three replicate titrations (0.313–10 μM), read-out: Activity on schistosomula (EC50, μM - 72 h) P
[3] = 72 h, Table S7, motility, 95% CI in brackets, read-out: Activity on schistosomula (EC50, µM - 72 h) (95% CI) M
[4] = 72 h, Table S7, phenotype, 95% CI in brackets, read-out: Activity on schistosomula (EC50, µM - 72 h) (95% CI) P
[5] = Table 3, read-out: Anti-schistosomal activity EC50 (μM) Schistosomula Motility
[6] = Table 3, read-out: Anti-schistosomal activity EC50 (μM) Schistosomula Phenotype
[7] = 72 h, Table 1, 72 h, two dose response titrations (0.313–10 μM), 95% CI in brackets, read-out: Activity on schistosomula (EC50, μM - 72 h) Motility
[8] = 72 h, Table 1, 72 h, two dose response titrations (0.313–10 μM), 95% CI in brackets, read-out: Activity on schistosomula (EC50, μM - 72 h) Phenotype
[9] = Fig. S3, average schistosomula EC50, read-out: EC50 (Fig. S3, anti-schistosomula activity)
[10] = 72 h, Table 1, mean of phenotype and motility EC50, 72 h, read-out: Activity on schistosomula (EC50, μM - 72 h) Average
[11] = 72 h, read-out: EC50 on schistosomula (bounds and ranges given)
[12] = Table 5, Series C, read-out: Anti-schistosomal activity EC50 Schistosomula (μM) Motility
[13] = Table 5, Series C, read-out: Anti-schistosomal activity EC50 Schistosomula (μM) Phenotype

SMILES | EC50 (S. mansoni schistosomula; [7]) [µM] | EC50 (S. mansoni schistosomula; [8]) [µM] | EC50 (S. mansoni schistosomula; [9]) [µM] | Effect on phenotype and motility of S. mansoni schistosomula (S. mansoni schistosomula; 72 h) | further results
O=[N+]([O-])c1ccc2nc(Cl)c(Cl)nc2c1 [2,3-dichloro-6-nitroquinoxaline] |  |  |  |  | EC50 (S. mansoni schistosomula; [1]): > 10 µM; EC50 (S. mansoni schistosomula; [2]): > 10 µM; EC50 (S. mansoni schistosomula; [3]): > 10 µM; EC50 (S. mansoni schistosomula; [4]): > 10 µM; EC50 (S. mansoni schistosomula; [5]): > 10 µM; EC50 (S. mansoni schistosomula; [6]): > 10 µM
O=[N+]([O-])c1ccc2nc(O)c(O)nc2c1 [6-nitro-2,3-dihydroxy-quinoxaline] |  |  |  |  | EC50 (S. mansoni schistosomula; [1]): > 50 µM; EC50 (S. mansoni schistosomula; [2]): > 50 µM; EC50 (S. mansoni schistosomula; [3]): > 50 µM; EC50 (S. mansoni schistosomula; [4]): > 50 µM; EC50 (S. mansoni schistosomula; [5]): > 50 µM; EC50 (S. mansoni schistosomula; [6]): > 50 µM
Cc1ccc(/N=c2\[nH]c3ccccc3s\c2=N\c2ccc(C)cc2)cc1 [Compound 2] | > 50 | > 50 | > 50 | did not have any effect | 
COc1ccc(/N=c2\[nH]c3ccccc3s\c2=N\c2ccc(OC)cc2)cc1 [Compound 3] | > 50 | > 50 | > 50 | did not have any effect | 
FC(F)(F)c1cccc(/N=c2\[nH]c3ccccc3s\c2=N\c2cccc(C(F)(F)F)c2)c1 [Compound 4] | > 50 | > 50 | > 50 | did not have any effect | 
Cc1ccc2[nH]c(=Nc3ccccc3C)c(=Nc3ccccc3C)[nH]c2c1 [Compound 5] | > 10 | > 10 |  | weak effect | 
COc1ccc2nc(Nc3ccccc3)c(Nc3ccccc3)nc2c1 [Compound 6] | > 10 | > 10 | > 10 | weak effect | 
OCc1cccc(N=c2[nH]c3ccccc3[nH]c2=Nc2cccc(CO)c2)c1 [Compound 7] | > 10 | > 10 |  | weak effect | 
COc1ccc(OC)c(Nc2nc3ccccc3nc2Nc2cc(OC)ccc2OC)c1 [Compound 8] | > 50 | > 50 | > 50 | did not have any effect | 
CCOc1ccc(Nc2nc3ccccc3nc2Nc2ccc(OCC)cc2)cc1 [Compound 9] | 4.87 | 5.92 |  |  | Activity on schistosomula in the primary screen at 10 μM (S. mansoni schistosomula; 72 h): retained activity; EC50 (S. mansoni schistosomula; [10]): 5.39 µM
CCOC(=O)c1ccc(Nc2nc3ccccc3nc2Nc2ccc(C(=O)OCC)cc2)cc1 [Compound 10] | 5.83 | 5.12 |  |  | Activity on schistosomula in the primary screen at 10 μM (S. mansoni schistosomula; 72 h): retained activity; EC50 (S. mansoni schistosomula; [10]): 5.47 µM
FC(F)(F)c1cccc(Nc2nc3ccccc3nc2Nc2cccc(C(F)(F)F)c2)c1 [Compound 11] | 1.12 | 1.38 |  |  | Activity on schistosomula in the primary screen at 10 μM (S. mansoni schistosomula; 72 h): retained activity; EC50 (S. mansoni schistosomula; [10]): 1.25 µM; Effect on adult worm motility at 3.15 μM (S. mansoni adult worms; 3.15 μM, lowest concentration tested): complete cessation of worm mobility; Effect on adult worm motility at 12.5 and 6.25 μM (S. mansoni adult worms): particularly active
FC(F)(F)c1cccc(Oc2nc3ccccc3nc2Oc2cccc(C(F)(F)F)c2)c1 [Compound 12] | > 10 | > 10 | > 10 | weak effect | 
Fc1ccccc1Nc1nc2ccccc2nc1Nc1ccccc1F [Compound 13] | > 10 | > 10 |  | weak effect | 
Cc1ccc(Sc2nc3ccccc3nc2Sc2ccc(C)cc2)cc1 [Compound 14] | > 50 | > 50 | > 50 | did not have any effect | 
Cc1ccc(Nc2nc3ccccc3nc2Nc2ccc(C)cc2)cc1 [Compound 15] | > 10 | > 10 | > 10 | weak effect | 
Cc1ccc(Nc2nc3ccccc3nc2Nc2ccc(C)c(C)c2)cc1C [Compound 16] | 3.69 | 5.42 |  |  | Activity on schistosomula in the primary screen at 10 μM (S. mansoni schistosomula; 72 h): retained activity; EC50 (S. mansoni schistosomula; [10]): 4.55 µM; Effect on adult worm motility at 12.5 and 6.25 μM (S. mansoni adult worms): particularly active
Cc1ccc(Nc2nc3ccccc3nc2Nc2ccc(C)c(Cl)c2)cc1Cl [Compound 17] | 2.45 | 2.88 |  |  | Activity on schistosomula in the primary screen at 10 μM (S. mansoni schistosomula; 72 h): retained activity; EC50 (S. mansoni schistosomula; [10]): 2.66 µM; EC50 (S. mansoni schistosomula; [11]): 1 to 2 µM
c1ccc(-c2nc3ccccc3nc2-c2ccccc2)cc1 [Compound 18] | > 10 | > 10 |  | weak effect | 
Cc1cccc(Nc2nc3ccc([N+](=O)[O-])cc3nc2Nc2cccc(C)c2)c1 [Compound 20] | 1.23 | 1.62 |  |  | Activity on schistosomula in the primary screen at 10 μM (S. mansoni schistosomula; 72 h): retained activity; EC50 (S. mansoni schistosomula; [10]): 1.42 µM; Effect on adult worm motility at 12.5 and 6.25 μM (S. mansoni adult worms): particularly active
Clc1ccc(Nc2nc3ccc(N4CCCC4)cc3nc2Nc2ccc(Cl)c(Cl)c2)cc1Cl [Compound 22b, N^2, N^3-bis(3,4-dichlorophenyl)-6-(pyrrolidin-1-yl)quinoxaline-2,3-diamine] |  |  |  |  | Activity on schistosomula in the primary screen at 50 μM (S. mansoni schistosomula; 50 μM, 72 h): affected schistosomula motility, but not phenotype; EC50 (S. mansoni schistosomula; [1]): > 10 µM; EC50 (S. mansoni schistosomula; [2]): > 10 µM; EC50 (S. mansoni schistosomula; [3]): > 10 µM; EC50 (S. mansoni schistosomula; [4]): > 10 µM; EC50 (S. mansoni schistosomula; [12]): > 10 µM; EC50 (S. mansoni schistosomula; [13]): > 10 µM
O=C(Nc1ccc2nc(Nc3ccc(Cl)c(Cl)c3)c(Nc3ccc(Cl)c(Cl)c3)nc2c1)C1CCCCC1 [Compound 22e, N-(2,3-bis((3,4-dichlorophenyl)amino)quinoxalin-6-yl)cyclohexanecarboxamide] |  |  |  |  | EC50 (S. mansoni schistosomula; [1]): > 50 µM; EC50 (S. mansoni schistosomula; [2]): > 50 µM; EC50 (S. mansoni schistosomula; [3]): > 50 µM; EC50 (S. mansoni schistosomula; [4]): > 50 µM; EC50 (S. mansoni schistosomula; [12]): > 50 µM; EC50 (S. mansoni schistosomula; [13]): > 50 µM
O=C(Nc1ccc2nc(Nc3ccc(Cl)c(Cl)c3)c(Nc3ccc(Cl)c(Cl)c3)nc2c1)c1cccc(C(F)(F)F)c1 [Compound 22g, N-(2,3-bis((3,4-dichlorophenyl)amino)quinoxalin-6-yl)-3-(trifluoromethyl)benzamide] |  |  |  |  | EC50 (S. mansoni schistosomula; [1]): > 50 µM; EC50 (S. mansoni schistosomula; [2]): > 50 µM; EC50 (S. mansoni schistosomula; [3]): > 50 µM; EC50 (S. mansoni schistosomula; [4]): > 50 µM; EC50 (S. mansoni schistosomula; [12]): > 50 µM; EC50 (S. mansoni schistosomula; [13]): > 50 µM
COC(=O)c1ccc(Nc2nc3ccc([N+](=O)[O-])cc3nc2Nc2ccc(C(=O)OC)cc2)cc1 [Compound 23] | 1.44 | 1.23 |  |  | Activity on schistosomula in the primary screen at 10 μM (S. mansoni schistosomula; 72 h): retained activity; EC50 (S. mansoni schistosomula; [10]): 1.33 µM; Effect on adult worm motility at 12.5 and 6.25 μM (S. mansoni adult worms): particularly active
O=C(O)C=Cc1cccc(Nc2nc3ccc([N+](=O)[O-])cc3nc2Nc2cccc(C=CC(=O)O)c2)c1 [Compound 24] | > 10 | > 10 |  | weak effect | 
Cc1cccc(Nc2nc3ccc([N+](=O)[O-])cc3nc2Nc2cccc(C)c2C)c1C [Compound 27, N2, N3-bis(2,3-dimethylphenyl)-6-nitroquinoxaline-2,3-diamine] |  |  |  |  | EC50 (S. mansoni schistosomula; [1]): > 10 µM; EC50 (S. mansoni schistosomula; [2]): > 10 µM; EC50 (S. mansoni schistosomula; [3]): > 10 µM; EC50 (S. mansoni schistosomula; [4]): > 10 µM; EC50 (S. mansoni schistosomula; [11]): > 10 µM; EC50 (S. mansoni schistosomula; Table 4, Series A, read-out: Anti-schistosomal activity EC50 Schistosomula (μM) Motility): > 10 µM; EC50 (S. mansoni schistosomula; Table 4, Series A, read-out: Anti-schistosomal activity EC50 Schistosomula (μM) Phenotype): > 10 µM
